One data set has as its target DNA-PK (Homo sapiens (Human), UniProt P78527). Description: DNA-PK assay (biochemical), flashplate 33P-ATP kinase assay. Summed up: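 Reactions ran in streptavidin-coated flashplates and were halted by 200 mM EDTA, with a further 30 min at room temperature before saline washing.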
Data set [1] has as its target DNA-PK phosphorylation at serine 2056 (Homo sapiens (Human), UniProt P78527). Description: DNA-PK phosphorylation at serine 2056 (cellular), bleomycin-treated HCT116 cells, ELISA. The format is cell-based. As to conditions: read-out: IC50 pDNA-PK. Summed up: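 Test compounds and bleomycin (10 μM) are added to adherent HCT116 cells for 6 h. Detection uses an HRP-based chemiluminescent ELISA, with phospho-DNA-PK signals standardised to total protein.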
(ELISA stands for enzyme-linked immunosorbent assay.)

The target in a further data set is Kv11.1 (hERG) (Homo sapiens (Human), UniProt Q12809). Description: Kv11.1 (hERG) ion channel activity (patch clamp assay), HEK293 cells transfected with hERG gene. Background: Block of hERG is tested as a sign of cardiac risk.
The mark [2] stands for this setting: cellular, HCT116 cells, 10 μM bleomycin, six hours.
Where [3] appears, read: read-out: Ki [Kv1.11 hERG], patch clamp, HEK293 transfected with hERG gene.
Setting [4] is: read-out: Ki [Kv1.11 hERG], Table 7.
The mark [5] stands for this setting: cellular DNA-PK phosphorylation at serine 2056, HCT116.
[6] abbreviates: Ki [Kv1.11 hERG], hERG patch clamp assay (cells without asterisk).
Where [7] appears, read: read-out: Ki [Kv1.11 hERG], hERG patch clamp assay (cells without asterisk).

Read-outs that look alike come from different tables or passages of the source.

Sequence of Kv11.1 (hERG) (Q12809 whole entry): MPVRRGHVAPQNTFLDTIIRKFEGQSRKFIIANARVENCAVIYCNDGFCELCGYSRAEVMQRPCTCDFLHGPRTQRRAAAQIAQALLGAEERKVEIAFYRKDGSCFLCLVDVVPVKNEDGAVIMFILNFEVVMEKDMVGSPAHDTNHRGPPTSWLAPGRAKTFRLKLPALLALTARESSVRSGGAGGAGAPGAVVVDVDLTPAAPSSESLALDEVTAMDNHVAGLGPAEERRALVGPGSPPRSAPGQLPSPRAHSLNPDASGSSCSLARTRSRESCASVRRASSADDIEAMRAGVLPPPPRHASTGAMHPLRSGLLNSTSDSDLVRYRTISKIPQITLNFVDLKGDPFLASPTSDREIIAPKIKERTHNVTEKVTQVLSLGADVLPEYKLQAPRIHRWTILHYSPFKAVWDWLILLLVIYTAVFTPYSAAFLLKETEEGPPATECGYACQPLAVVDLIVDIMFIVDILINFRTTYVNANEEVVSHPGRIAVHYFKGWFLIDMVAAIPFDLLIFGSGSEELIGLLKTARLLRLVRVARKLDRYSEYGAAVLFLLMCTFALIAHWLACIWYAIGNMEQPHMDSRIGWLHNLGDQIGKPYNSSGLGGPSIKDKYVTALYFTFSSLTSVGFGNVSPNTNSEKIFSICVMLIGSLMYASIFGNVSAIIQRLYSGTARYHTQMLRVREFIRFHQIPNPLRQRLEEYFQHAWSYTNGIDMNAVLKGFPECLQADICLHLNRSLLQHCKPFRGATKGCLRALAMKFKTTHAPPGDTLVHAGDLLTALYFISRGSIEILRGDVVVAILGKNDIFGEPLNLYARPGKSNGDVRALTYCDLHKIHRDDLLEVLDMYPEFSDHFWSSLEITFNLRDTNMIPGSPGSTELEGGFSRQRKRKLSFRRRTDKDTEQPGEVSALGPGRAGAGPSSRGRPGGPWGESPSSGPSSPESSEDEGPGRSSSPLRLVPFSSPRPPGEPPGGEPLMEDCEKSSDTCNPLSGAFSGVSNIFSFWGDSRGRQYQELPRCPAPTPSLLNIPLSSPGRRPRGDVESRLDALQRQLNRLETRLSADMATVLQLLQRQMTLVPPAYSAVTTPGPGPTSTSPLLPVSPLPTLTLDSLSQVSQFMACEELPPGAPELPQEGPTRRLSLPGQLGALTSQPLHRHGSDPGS

For orientation: IC50 means the point on the concentration scale where inhibition reaches its midpoint. Usually Ki stands for the dissociation constant of the complex between target and ligand, obtained from inhibition or displacement. Take `Cc1cc(F)c(-c2ncnc3cc(N4CCOCC4)ccc23)cc1C(O)c1nccs1` (stereo not drawn) [Example 209, [4-Fluoro-2-methyl-5-(7-morpholin-4-yl-quinazolin-4-yl)-phenyl]thiazol-2-ylmethanol]: the IC50 was more than 30 nM against DNA-PK (enzymatic, 5 μM ATP) and 10 to 30 µM in data set [1] (setting [2]). Further, at Kv11.1 (hERG) (setting [3]), the Ki was more than 25 µM.
The like results for `Cc1cc(F)c(-c2ncnc3cc(N4CCOCC4)ccc23)cc1C(O)c1nccs1` (stereo not drawn) [Example 210, [4-Fluoro-2-methyl-5-(7-morpholin-4-yl-quinazolin-4-yl)-phenyl]thiazol-2-ylmethanol] were, in that order, 3 to 7 nM, 0.5 to 5 µM and more than 25 µM.
The like results for `OC(c1ccc(F)c(-c2ncnc3cc(N4CCOCC4)ccc23)c1)c1nccs1` (stereo not drawn) [Example 211, [4-Fluoro-3-(7-morpholin-4-yl-quinazolin-4-yl)-phenyl]thiazol-2-ylmethanol] were, in that order, 3 to 7 nM, 0.5 to 5 µM and more than 25 µM.
For `C#Cc1nc(-c2cc(C(O)c3nccs3)ccc2F)c2ccc(N3CCOCC3)cc2n1` (stereo not drawn) [Example 215, [3-(2-Ethynyl-7-morpholin-4-yl-quinazolin-4-yl)-4-fluorophenyl]-thiazol-2-yl-methanol] the same measures were less than 3 nM, 5 to 10 µM and less than 10 µM.
As for `C#Cc1nc(-c2cc(C(O)c3nccs3)ccc2F)c2ccc(N3CCOCC3)cc2n1` (stereo not drawn) [Example 216, [3-(2-Ethynyl-7-morpholin-4-yl-quinazolin-4-yl)-4-fluorophenyl]-thiazol-2-yl-methanol], the IC50 on DNA-PK (enzymatic, 5 μM ATP) was less than 3 nM; in data set [1] (setting [2]), 10 to 30 µM. Besides, the inhibitory constant (Ki) at Kv11.1 (hERG) (Ki [Kv1.11 hERG], patch clamp, HEK293 transfected with hERG gene) was in the range of 10 to 15 µM.
As for `OC(c1cccnc1)c1cc(-c2ncnc3cc(N4CCOCC4)ccc23)c(F)cc1F` (stereo not drawn) [Example 217, [2,4-Difluoro-5-(7-morpholin-4-ylquinazolin-4-yl)phenyl]pyridin-3-ylmethanol], the IC50 against DNA-PK (Table 7) is 3 to 7 nM; in data set [1] (Table 7, HCT116 cells), less than 0.5 µM. Also, the Ki at Kv11.1 (hERG) (setting [4]) is more than 25 µM.
As to `OC(c1ccccn1)c1cc(-c2ncnc3cc(N4CCOCC4)ccc23)c(F)cc1F` (stereo not drawn) [Example 218, [2,4-Difluoro-5-(7-morpholin-4-yl-quinazolin-4-yl)-phenyl]pyridin-2-yl-methanol], the IC50 is 3 to 7 nM against DNA-PK (Table 7) and less than 0.5 µM in data set [1] (Table 7, HCT116 cells). Moreover, on Kv11.1 (hERG) (Ki [Kv1.11 hERG], Table 7), the Ki fell in the range of 15 to 25 µM.
The like results for `Cn1nc(C(O)c2cc(-c3ncnc4cc(N5CCOCC5)ccc34)c(F)cc2F)ccc1=O` (stereo not drawn) [Example 219, 6-{[2,4-Difluoro-5-(7-morpholin-4-yl-quinazolin-4-yl)-phenyl]hydroxy-methyl}-2-methyl-2H-pyridazin-3-one] were, in that order, 3 to 7 nM, 0.5 to 5 µM and 15 to 25 µM.
Turning to `Cn1nc(C(O)c2ccc(F)c(-c3ncnc4cc(N5CCOCC5)ccc34)c2F)ccc1=O` (stereo not drawn) [Example 220, 6-{[2,4-Difluoro-3-(7-morpholin-4-yl-quinazolin-4-yl)-phenyl]hydroxy-methyl}-2-methyl-2H-pyridazin-3-one], the IC50 against DNA-PK (Table 7) is more than 30 nM; in data set [1] (Table 7, HCT116 cells), 5 to 10 µM. In addition, the Ki on Kv11.1 (hERG) (setting [4]) was more than 25 µM.
For the compound `COc1ccc(C(O)c2cc(-c3ncnc4cc(N5CCOCC5)ccc34)c(F)cc2F)cn1` (stereo not drawn) [Example 221, [2,4-Difluoro-5-(7-morpholin-4-yl-quinazolin-4-yl)-phenyl]-(6-methoxy-pyridin-3-yl)methanol], the IC50 is 3 to 7 nM at DNA-PK (Table 7) and 0.5 to 5 µM in data set [1] (Table 7, HCT116 cells). This compound also had a Ki at Kv11.1 (hERG) (Ki [Kv1.11 hERG], Table 7) of 15 to 25 µM.
As to `OC(c1ccc2ncnn2c1)c1cc(-c2ncnc3cc(N4CCOCC4)ccc23)c(F)cc1F` (stereo not drawn) [Example 222, [2,4-Difluro-5-(7-morpholin-4-yl-quinazolin-4-yl)-phenyl]-[l,2,4]-triazolo[1,5-a]pyridin-6-ylmethanol], the IC50 is 3 to 7 nM against DNA-PK (Table 7) and 0.5 to 5 µM in data set [1] (Table 7, HCT116 cells). Besides, at Kv11.1 (hERG) (setting [4]), the Ki was more than 25 µM.
The like results for `OC(c1cn2ccnc2cn1)c1cc(-c2ncnc3cc(N4CCOCC4)ccc23)c(F)cc1F` (stereo not drawn) [Example 223, [2,4-Difluoro-5-(7-morpholin-4-yl-quinazolin-4-yl)-phenyl]imidazo-[1,2-a]pyrazin-6-yl-methanol] were, in that order, 7 to 30 nM, 0.5 to 5 µM and more than 25 µM.
Turning to `COc1ccc(C(O)c2cc(-c3ncnc4cc(N5CCOCC5)ccc34)c(F)cc2F)nc1` (stereo not drawn) [Example 224, [2,4-Difluoro-5-(7-morpholin-4-yl-quinazolin-4-yl)-phenyl]-(5-methoxy-pyridin-2-yl)methanol], the IC50 on DNA-PK (Table 7) lay within 3 to 7 nM; in data set [1] (Table 7, HCT116 cells), 0.5 to 5 µM. Moreover, the Ki at Kv11.1 (hERG) (Ki [Kv1.11 hERG], Table 7) lay within 15 to 25 µM.
For `[2H]c1c(N2CCOCC2)cc2ncnc(-c3cc(C(O)c4nccnc4C)ccc3F)c2c1[2H]` (stereo not drawn) [Example 226, [3-(5,6-Dideuterio-7-morpholino-quinazolin-4-yl)-4-fluorophenyl]-(3-melhylpyrazin-2-yl)-methanol], the figures for the IC50 (against DNA-PK (biochemical DNA-PK assay); in data set [1] (setting [5])) were 3 to 7 nM and less than 0.5 µM, respectively. The same compound returned a Ki on Kv11.1 (hERG) (setting [6]) of more than 25 µM.
In the case of `COc1ccc(C(O)c2cc(-c3ncnc4cc(N5CCOCC5)cnc34)c(F)cc2Cl)nn1` (stereo not drawn) [Example 227, [2-Chloro-4-fluoro-5-(7-morpholin-4-yl-pyrido[3,2-d}-pyrimidin-4-yl)-phenyl]-(6-methoxy-pyridazin-3-yl)-methanol], the IC50 at DNA-PK (biochemical DNA-PK assay) lay in the range of 3 to 7 nM; in data set [1] (setting [5]) it was 0.5 to 5 µM. Besides, the Ki at Kv11.1 (hERG) (setting [7]) is more than 25 µM.
For `COc1ccc(C(O)c2cc(-c3ncnc4cc(N5CCOCC5)cnc34)c(F)cc2Cl)nn1` (stereo not drawn) [Example 228, [2-Chloro-4-fluoro-5-(7-morpholin-4-yl-pyrido[3,2-d}-pyrimidin-4-yl)-phenyl]-(6-methoxy-pyridazin-3-yl)-methanol] the same measures were more than 30 nM, 10 to 30 µM and more than 25 µM.
The like results for `CNC(=O)C(c1cc(-c2ncnc3cc(N4CCOCC4)ccc23)c(F)cc1Cl)c1nccnc1OC` (stereo not drawn) [Example 229, 2-[2-Chloro-4-fluoro-5-(7-morpholin-4-yl-quinazolin-4-yl)-phenyl]-2-(3-methoxypyrazin-2-yl)-N-methyl-acetamide] were, in that order, 7 to 30 nM, 0.5 to 5 µM and more than 25 µM.
For `COc1nccnc1C(O)c1cc(-c2ncnc3cc(N4CCOCC4)cnc23)c(F)cc1Cl` (stereo not drawn) [Example 231, [2-Chloro-4-fluoro-5-(7-morpholin-4-yl-pyrido[3,2-d}-pyrimidin-4-yl)-phenyl]-(3-methoxy-pyrazin-2-yl)-methanol] the same measures were 7 to 30 nM, 0.5 to 5 µM and more than 25 µM.
In the case of `COc1nccnc1C(O)c1cc(-c2ncnc3cc(N4CCOCC4)cnc23)c(F)cc1Cl` (stereo not drawn) [Example 232, [2-Chloro-4-fluoro-5-(7-morpholin-4-yl-pyrido[3,2-d}-pyrimidin-4-yl)-phenyl]-(3-methoxy-pyrazin-2-yl)-methanol], the IC50 fell in the range of 7 to 30 nM at DNA-PK (biochemical DNA-PK assay) and 10 to 30 µM in data set [1] (setting [5]). The Ki on Kv11.1 (hERG) (setting [7]) is more than 25 µM.
The like results for `Cc1nccnc1[C@@H](O)c1ccc(F)c(-c2ncnc3cc(N4CCOCC4)cnc23)c1` [Example 233, (S)-[4-Fluoro-3-(7-morpholin-4-yl-pyrido[3,2-d}-pyrimidin-4-yl)-phenyl]-(3-methyl-pyrazin-2-yl)-methanol] were, in that order, 7 to 30 nM, 10 to 30 µM and more than 25 µM.
For `Cc1nccnc1[C@H](O)c1ccc(F)c(-c2ncnc3cc(N4CCOCC4)cnc23)c1` [Example 234, (R)-[4-Fluoro-3-(7-morpholin-4-yl-pyrido[3,2-d}-pyrimidin-4-yl)-phenyl]-(3-methyl-pyrazin-2-yl)-methanol] the same measures were less than 3 nM, less than 0.5 µM and more than 25 µM.
As to `Cc1nccnc1C(O)c1ccc(F)c(-c2ncnc3cc(N4CCOCC4)cnc23)c1` (stereo not drawn) [Example 237, [4-Fluoro-3-(7-morpholin-4-ylpyrido[3,2-d]pyrimidin-4-yl)phenyl]-(3-methylpyrazin-2-yl)methanol], the IC50 on DNA-PK (biochemical DNA-PK assay) was less than 3 nM; in data set [1] (setting [5]) it was less than 0.5 µM. The compound also showed a Ki at Kv11.1 (hERG) (setting [6]) of 10 to 15 µM.
For `[2H]C1([2H])OC([2H])([2H])C([2H])([2H])N(c2ccc3c(-c4cc(C(O)c5nccnc5C)ccc4F)ncnc3c2)C1([2H])[2H]` (stereo not drawn) [Example 238, [4-Fluoro-3-[7-(2,2,3,3,5,5,6,6-octadeuteriomorpholin-4-yl)quinazolin-4-yl]phenyl]-(3-methyl-pyrazin-2-yl)-methanol] the same measures were less than 3 nM, less than 0.5 µM and 15 to 25 µM.
For `Cc1nccnc1C(O)c1cc(-c2ncnc3cc(N4CCOCC4)cnc23)c(F)cc1Cl` (stereo not drawn) [Example 240, [2-Chloro-4-fluoro-5-(7-morpholin-4-yl-pyrido[3,2-d}-pyrimidin-4-yl)-phenyl]-(3-methyl-pyrazin-2-yl)-methanol], the IC50 on DNA-PK (biochemical DNA-PK assay) is 7 to 30 nM; in data set [1] (setting [5]) it was 0.5 to 5 µM. On Kv11.1 (hERG) (setting [7]), the Ki was more than 25 µM.

Values taken from patent US9732094B2, “Arylquinazolines” (Merck Patent GmbH, priority 2013, dated 2017).
